Data published in patent publication US20160220720A1, “COMPOSITIONS COMPRISING POLYAMINE POLYMER COMPATIBLE PERFUME MATERIALS” (priority 2013, published 2016).
Values joined by “and” are separate entries in the source; they are usually repeats but may differ in a detail not shown here. Equal entries are not always repeated.

assay: not given; conditions: ambient temperature; cited from earlier work

| Molecule | water solubility (benchmark) [g/100 ml] |
| --- | --- |
| hydroxypropyl modified beta cyclodextrin | ≥ 60 |

assay: GC-MS head space ratio of perfume raw materials with versus without polyamine polymer (R); assay type: physicochemical; conditions: aqueous fabric refresher formulation pH 6.8, 0.05% Lupamin 1595; head space after 1 hr room temperature and 20 minutes at 40° C.; Control without polyamine polymer = 1.000
Procedure: R=head space of aqueous composition containing polyamine/head space of aqueous composition nil polyamine polymer
Polyamine polymer perfume interactions were studied in aqueous fabric refresher formulations. Aqueous formulations containing a perfume mixture and a polyamine polymer was prepared according to Table 2 and studied against a control fabric refresher formulation without a polyamine polymer. Studies were conducted using 500 ppm (0.05%) polyamine polymer and perfume mixtures at 2 levels (500 ppm (0.05%) and 10,000 ppm […]).
GC-MS was used to study polymer perfume aldehyde interactions using the formulations prepared in Example 1. For the GC-MS analysis, 2 ml of each sample was transferred into 20 ml headspace vial, equilibrated at room temperature for 1 hr, and incubated at 40° C. for 20 minutes. Then, 1 ml of head space was injected into GC-MS using 1 to 10 split, and perfume raw material intensities were measured. Perfume raw material peak area ratios were then calculated using the control sample without a polyamine polymer.
PRMs that react with polyamine polymer have a headspace concentration less than 1.00 with respect to the normalized Control.

| Molecule | GC-MS head space peak area ratio normalized to Control |
| --- | --- |
| CC(C)=CCC/C(C)=C\C=O [Neral] | 0.261 |
| C=C(C)C1CC=C(C)C(=O)C1 (stereo not drawn) [Carvone] | 1.103 |
| CC(C)CCCC(C)CC=O (stereo not drawn) [Tetrahydrogeranial] | 0.415 |
| C/C=C/C(=O)C1C(C)C=CCC1(C)C (stereo not drawn) [Delta-damascone] | 1.228 |
| CCCCCCCCCCC=CC=O [Tridecenal] | 0.470 |
| CC(C)c1ccc(C=O)cc1 [Cuminaldehyde] | 0.977 |
| CC(=O)/C=C/C1=C(C)CCCC1(C)C [Beta Ionone] | 1.222 |
| O=Cc1ccccc1 [Benzaldehyde] | 1.030 |
| CCCCCCC(C=O)=Cc1ccccc1 [Hexylcinnamicaldehyde] | 1.480 |
| CC(C)=CCCC(C)CCCC(C)C=O (stereo not drawn) [Adoxal] | 0.751 |
| CC(=O)c1cccs1 [2-acetyl thiophene] | 0.794 |
| O=CCCC=C1CC2CC1C1CCCC21 (stereo not drawn) [Dupical] | 0.932 |
| CCCCCCCCC(C)C=O (stereo not drawn) [Methyl Octyl acetaldehyde] | 0.836 |
| CCCCCCCCCCCC=O [Lauric Aldehyde] | 0.169 |
| CCCC(C)C=O (stereo not drawn) [2-methyl petanal] | 0.864 |
| CCCCCCCCCC(C)C=O (stereo not drawn) [Methyl Nonyl Acetaldehyde] | 0.772 |
| CC(C)=CCCC(C)CC=O (stereo not drawn) [Citronellal] | 2.597 |
| COc1ccc(C=O)cc1 [p-Anisaldehyde] | 1.521 |
| CCC/C=C/C=O [Trans-2-hexenal] | 0.226 |
| CCCCCC=O [Hexanal] | 0.222 |
| CCCCCCCCC=O [Nonaldehyde] | 0.209 |
| CC(=O)c1ccc(C(C)=O)cc1 [1,4-diacety lbenzene] | 0.913 |

same assay, conditions: aqueous fabric refresher formulation pH 6.8, 0.05% Lupamin 1595; head space after 1 hr room temperature and 20 minutes at 40° C.; Control without polyamine polymer = 1.000; listed as Kaovone

| Molecule | GC-MS head space peak area ratio normalized to Control |
| --- | --- |
| CC(=O)/C(C)=C(/C)C(C)C(C)(C)C (stereo not drawn) [Koavone] | 1.185 and 1.159 and 1.171 |

same assay, conditions: head space with polyamine polymer / head space nil polyamine polymer

| Molecule | Obs. Lupamin Ratio |
| --- | --- |
| CC1(C)CCc2ccc(CCC=O)cc21 [Hivernal] | 0.17 |
| CC(C)CCCC(C)CC=O (stereo not drawn) [Tetrahydrogeranial] | 0.42 |
| O=CC1CCC2C3CCC(C3)C12 (stereo not drawn) [Melozone] | 0.28 |
| CC(C)=CCCC(C)CCCC(C)C=O (stereo not drawn) [Adoxal] | 0.79 |
| COc1ccc(C=O)cc1 [p-Anisaldehyde] | 1.52 |
| O=Cc1ccc2c(c1)OCO2 [Heliotropin] | 1.65 |
| CCCCCCCCC=O [Nonaldehyde] | 0.21 |
| CC(=O)/C(C)=C(/C)C(C)C(C)(C)C (stereo not drawn) [Koavone] | 1.17 |
| CC(C)=CCC/C(C)=C/C=O [Citral] | 0.23 |
